In US7279317B2, “Modulation of COP9 signalsome isopeptidase activity” (California Institute of Technology, priority 2001, dated 2007):

How the values were obtained:
26S proteasome [1] = target: T1, 26S proteasome (Saccharomyces cerevisiae, UniProt P25043+P30656+P38624+P43588); assay: Deubiquitination and degradation of multiubiquitinated Sic1 by purified 26S proteasome, immunoblot; type: biochemical; conditions: 2.5 μM; in the presence of epoxomicin
T1 construct: made in house; host or cells: Saccharomyces cerevisiae

CSN = target: T2, CSN (Schizosaccharomyces pombe, UniProt O94454); assay: Nedd8 conjugate cleavage (deneddylation of Pcu1/Cul1) by CSN in S. pombe cell extracts, immunoblot; type: biochemical; conditions: 30 min at 30° C.; for inhibition of Nedd8 conjugate cleavage activity of CSN (Nedd8 deconjugation from Cul1): 1 mM chelator
T2 construct: addition (+) of wild type lysate (which contained active CSN); endogenous in cells; host or cells: wild type S. pombe cell lysate
T2 sequence (O94454 whole entry): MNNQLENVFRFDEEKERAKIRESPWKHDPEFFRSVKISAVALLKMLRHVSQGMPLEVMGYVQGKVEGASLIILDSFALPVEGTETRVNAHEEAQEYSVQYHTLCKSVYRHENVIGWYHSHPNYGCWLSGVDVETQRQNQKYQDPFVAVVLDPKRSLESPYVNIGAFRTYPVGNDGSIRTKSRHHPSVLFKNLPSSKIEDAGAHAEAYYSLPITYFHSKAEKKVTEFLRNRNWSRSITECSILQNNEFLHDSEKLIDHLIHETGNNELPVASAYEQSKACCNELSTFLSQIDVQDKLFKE
T2 sequence (O94308 whole entry partner): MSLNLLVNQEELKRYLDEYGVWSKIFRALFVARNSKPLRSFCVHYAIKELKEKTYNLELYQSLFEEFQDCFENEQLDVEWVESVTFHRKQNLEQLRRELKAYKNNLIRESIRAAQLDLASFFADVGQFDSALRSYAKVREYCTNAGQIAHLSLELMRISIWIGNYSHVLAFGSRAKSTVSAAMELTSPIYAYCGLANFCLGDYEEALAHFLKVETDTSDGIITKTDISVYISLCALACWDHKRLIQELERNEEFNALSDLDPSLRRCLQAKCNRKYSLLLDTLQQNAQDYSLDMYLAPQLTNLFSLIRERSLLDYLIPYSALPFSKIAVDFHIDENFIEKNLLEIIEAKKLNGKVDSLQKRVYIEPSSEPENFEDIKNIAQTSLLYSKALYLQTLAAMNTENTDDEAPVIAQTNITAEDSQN
T2 sequence (Q9HFR0 whole entry partner): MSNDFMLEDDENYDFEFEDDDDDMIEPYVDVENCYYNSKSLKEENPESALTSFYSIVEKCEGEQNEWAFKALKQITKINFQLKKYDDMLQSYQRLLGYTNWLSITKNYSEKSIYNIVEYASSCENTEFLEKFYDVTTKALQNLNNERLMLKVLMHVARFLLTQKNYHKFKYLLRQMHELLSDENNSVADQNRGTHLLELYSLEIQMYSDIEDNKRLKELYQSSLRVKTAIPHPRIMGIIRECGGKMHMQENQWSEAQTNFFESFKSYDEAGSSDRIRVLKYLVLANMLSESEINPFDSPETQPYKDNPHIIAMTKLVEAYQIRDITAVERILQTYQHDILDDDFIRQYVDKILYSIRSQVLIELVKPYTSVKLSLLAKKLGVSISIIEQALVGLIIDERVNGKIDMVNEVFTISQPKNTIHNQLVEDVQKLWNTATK
T2 sequence (O13895 whole entry partner): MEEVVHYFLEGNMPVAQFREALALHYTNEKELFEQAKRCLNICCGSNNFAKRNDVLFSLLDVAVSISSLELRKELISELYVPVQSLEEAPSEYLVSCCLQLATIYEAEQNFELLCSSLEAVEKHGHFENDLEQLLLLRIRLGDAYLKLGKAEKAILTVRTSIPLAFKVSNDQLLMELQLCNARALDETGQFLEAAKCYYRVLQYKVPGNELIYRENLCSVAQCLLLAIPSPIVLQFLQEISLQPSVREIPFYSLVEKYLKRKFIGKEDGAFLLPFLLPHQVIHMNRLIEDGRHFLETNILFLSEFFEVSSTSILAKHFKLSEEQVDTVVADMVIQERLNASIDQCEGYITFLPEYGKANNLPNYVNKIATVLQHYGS
T2 sequence (Q8WZK4 whole entry partner): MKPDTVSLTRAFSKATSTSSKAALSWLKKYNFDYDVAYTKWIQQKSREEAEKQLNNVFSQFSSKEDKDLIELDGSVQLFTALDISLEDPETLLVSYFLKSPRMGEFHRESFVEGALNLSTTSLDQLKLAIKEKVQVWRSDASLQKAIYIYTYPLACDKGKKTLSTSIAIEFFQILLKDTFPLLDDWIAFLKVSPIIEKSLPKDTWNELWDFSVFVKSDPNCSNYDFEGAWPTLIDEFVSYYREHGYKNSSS
T2 sequence (Q9UUJ7 whole entry partner): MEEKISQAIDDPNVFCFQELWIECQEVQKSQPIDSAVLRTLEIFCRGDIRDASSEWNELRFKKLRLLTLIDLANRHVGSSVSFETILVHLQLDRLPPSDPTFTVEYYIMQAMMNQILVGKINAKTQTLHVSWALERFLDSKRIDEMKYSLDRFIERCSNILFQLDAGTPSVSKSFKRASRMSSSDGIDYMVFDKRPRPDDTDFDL
Description: On the basis of this analysis, it was hypothesized that CSN represents the founding member of a novel class of metalloproteases. To test this hypothesis, the effect of a divalent cation chelator on the Nedd8 conjugate cleavage activity associated with CSN was examined. Mutant csn5Δ S. pombe cell extract that contained neddylated Pcu1 was incubated either alone (−) or following addition (+) of wild type lysate (which contained active CSN) supplemented with either methanol vehicle (MeOH), 1 mM 1,10-phenanthroline (O-PT), or 1 mM, 10 mM, or 20 mM EDTA.
Reactions were incubated 30 min at 30° C. and terminated by addition of SDS-PAGE sample buffer, fractionated by SDS-PAGE, transferred to nitrocellulose, and immunoblotted with antibodies directed against S. pombe Cul1. Filter-bound antibodies were decorated with goat-anti-rabbit antibody conjugated to horse radish peroxidase and visualized with ECL reagents (Lyapina et al., supra, 2001).
The status of Nedd8 conjugation to Cul1 was determined by the mobility of Cul1 on the SDS-polyacrylamide gel. Nedd8-conjugated Cul1 migrated more slowly than unmodified Cul.

26S proteasome [2] = conditions: prior work; cited from earlier work

Row | Compound | sensitivity of Sic1 deubiquitination by 26S proteasome to the inhibitor (26S proteasome [1]) | inhibition of Nedd8 conjugate cleavage activity of CSN (Nedd8 deconjugation from Cul1) (CSN) | inhibition of Nedd8 deconjugation from Cul1 by CSN (CSN; 10 mM) | inhibition of Nedd8 deconjugation from Cul1 by CSN (CSN; 20 mM) | sensitivity of 26S proteasome-associated isopeptidase activity (26S proteasome [2])
1 | ubiquitin vinyl sulfone | not sensitive |  |  |  | 
2 | O=C(O)CN(CCN(CC(=O)O)CC(=O)O)CC(=O)O [EDTA] |  | No inhibition | less than 50% | almost complete inhibition | 
3 | c1cnc2c(c1)ccc1cccnc12 [1,10-phenanthroline] |  | completely inhibited |  |  | sensitive
